Measured values taken from patent US12667551B2, “Renal function maintenance and protection agent, and method for evaluating effect thereof” (MARUHA NICHIRO CORPORATION, priority 2018, dated 2026).
Marks after values point to notes of the source that are not given here.

Experiments:
[1] = tested on: spontaneously hypertensive stroke-prone rats (SHR-SP/Izm); assay: Serum and urine biochemical tests, comparison of DHA-bound TG and EE (Example 3); format: in vivo, rat; conditions: H-DHA-TG 2,000, DHA-EE 1,303, Tri-DHA-TG 1,246 mg/kg once a day gavage, 4 weeks; for Urine Alb / Urine Alb/CRE / Urine TP: median
Description: (§1) Spontaneously hypertensive stroke-prone rats (SHR-SP/Izm, Nihon SLC Co., Ltd.) aged 4 weeks were acclimatized for 1 week, then fed an 8-mass % salt-containing solid diet (AlN-93G) and a drinking water freely, and once a day, DHA highly enriched triglycerides (H-DHA-TG), esters (DHA-EE) used in Example 2, and triglycerides (Tri-DHA-TG) prepared in Example 2 were administered by gavage with the amounts shown in Table 3,
(§2) In addition, urine samples were collected before the start of administration and after 4 weeks of administration under fasting for 16 hours, and biochemical tests and metabolite analysis by NMR were performed by conventional methods.
At the end of the test, blood was collected from the abdominal vena cava and necropsied.
Biochemical metabolite analysis was performed on the obtained serum by conventional methods.

[2] = tested on: spontaneously hypertensive stroke-prone rats (SHR-SP/Izm); assay: Kidney pathology scores GSI and AIS (Example 3); format: in vivo, rat; conditions: H-DHA-TG 2,000, DHA-EE 1,303, Tri-DHA-TG 1,246 mg/kg once a day gavage, 4 weeks, group average
Description: as §1
The kidneys were fixed in formalin solution, and then each staining was performed by PAS-staining, Sirius-Red-staining, and immunostaining for α-SMA, CD68, Desmin, and Kim−1 for pathological observations.
For PAS-staining, along with pathomorphological observations, glomerulosclerosis score (GSI), renal artery injury score (AIS) were performed with reference to Clinical and Experimental Hypertension, 2012, 34 (2) 99-106.

[3] = tested on: spontaneously hypertensive stroke-prone rats (SHR-SP/Izm); assay: Urine metabolite analysis by NMR (Example 3); format: in vivo, rat; conditions: for Urine metabolic concentration: 4-Hydroxyphenylacetate / Urine metabolic concentration: Glycine / Urine metabolic concentration: N-Phenylacetylglycine / Urine metabolic concentration: Creatinine: Example 3, H-DHA-TG 2,000, DHA-EE 1,303, Tri-DHA-TG 1,246 mg/kg, 4 weeks; for Urine metabolic concentration: Creatinine: normaliser
Description: as §1, §2

[4] = tested on: diabetic disease model animals; conditions: Non-Patent Document 4; cited from earlier work
[5] = tested on: salt-sensitive spontaneously hypertensive stroke-prone rats; conditions: Non-Patent Documents 1 and 2; cited from earlier work

| Compound | Serum BUN [1] [mg/dL] | Serum CRE [1] [mg/dL] | Urine CRE [1] [mg/16 h] | Urine Alb [1] | Urine Alb/CRE [1] | Urine TP [1] | AIS (renal artery injury score) [2] | GSI (glomerulosclerosis score) [2] | Urine metabolic concentration: 4-Hydroxyphenylacetate [3] | Urine metabolic concentration: Glycine [3] | Urine metabolic concentration: N-Phenylacetylglycine [3] | Urine metabolic concentration: Creatinine [3] | Blood glucose levels [4] | Renal function protection [5] | Significant differences of urine metabolites vs control, triglycerides compared with esters ([3]; Example 3, Table 6) |
| --- | --- | --- | --- | --- | --- | --- | --- | --- | --- | --- | --- | --- | --- | --- | --- |
| CC/C=C\C/C=C\C/C=C\C/C=C\C/C=C\C/C=C\CCC(=O)OCC [DHA-EE, ethyl esters of docosahexaenoic acid] | 25.1 ± 3.7 | 0.28 ± 0.04 | 3.23 ± 0.59 | 1054 ug/16 h | 4.44^† | 3.2 mg/16 h | 19.4 | 7.1 | 0.09 ± 0.03 (μM)/Cre(μM) | 0.18 ± 0.04 (μM)/Cre(μM) | 0.34 ± 0.09 (μM)/Cre(μM) | 1.00 ± 0.00 (μM)/Cre(μM) | lowered blood glucose levels to the same extent as control | renal function was protected | – |
| CC/C=C\C/C=C\C/C=C\C/C=C\C/C=C\CCCC(=O)OCC [EPA-EE, ethyl esters of eicosapentaenoic acid] | – | – | – | – | – | – | – | – | – | – | – | – | no effect was observed | renal function was protected | – |
| CC/C=C\C/C=C\C/C=C\C/C=C\C/C=C\C/C=C\CCC(=O)OCC(COC(=O)CC/C=C\C/C=C\C/C=C\C/C=C\C/C=C\C/C=C\CC)OC(=O)CC/C=C\C/C=C\C/C=C\C/C=C\C/C=C\C/C=C\CC [Tri-DHA-TG, tridocosahexaenoyl triglyceride] | 25.1 ± 4.2 | 0.28 ± 0.06 | 3.02 ± 0.47 | 544.95^† ug/16 h | 1.85^† | 3.2^† mg/16 h | 21.1 | 11.4 | 0.12 ± 0.04 (μM)/Cre(μM) | 0.19 ± 0.03 (μM)/Cre(μM) | 0.42 ± 0.08 (μM)/Cre(μM) | 1.00 ± 0.00 (μM)/Cre(μM) | – | – | more significant differences |
| triglycerides of DHA [DHA-TAG] | – | – | – | – | – | – | – | – | – | – | – | – | lowered blood glucose levels to the same extent as control | – | – |
| triglycerides of EPA [EPA-TAG] | – | – | – | – | – | – | – | – | – | – | – | – | no effect was observed | – | – |
